Target: Aβ(1-42) (Homo sapiens, UniProt P05067)
Assay: Aggregation inhibition by paper-based ECL assay with [Ru
Format: biochemical

Sequence of Aβ(1-42) (P05067 672-713): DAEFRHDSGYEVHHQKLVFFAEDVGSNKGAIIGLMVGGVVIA

Nc1c(/N=N/c2ccc(-c3ccc(/N=N/c4cc(S(=O)(=O)O)c5ccccc5c4N)cc3)cc2)cc(S(=O)(=O)O)c2ccccc12 [CR, Congo red]
IC50: 1.07 µM

— publication PMC5928890 (Theranostics, 2018)
